Laboratory results reported in the supplement of paper PMC10331698.
± gives the standard deviation of the averaged measurements.

Tests used:
Experiment in all cases: level (log10 ratio to DMSO vehicle control); higher = higher biomarker level / cell amount than vehicle control
[1] = compound: O=S(=O)(O)C(F)(F)C(F)(F)OC(F)(F)C(F)(F)F [Perfluoro(2-ethoxyethane)sulfonic acid] (in DMSO)
Method: (§1)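 BioMAP Diversity Plus panel of 12 human primary cell co-culture systems (3C, 4H, LPS, SAg, BT, BF4T, BE3C, CASM3C, HDF3CGF, KF3CT, MyoF, Mphg). Compounds were added 1 h before stimulation and left for 24 h (MyoF 48 h; BT 72 h for soluble read-outs or 6 d for IgG). Biomarkers were read by ELISA, cytotoxicity by SRB, PBMC viability and proliferation by Alamar Blue. Each well value was divided by the mean of 8 DMSO control wells on the same plate and log10 transformed; duplicate blinded samples were tested at 4 concentrations.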

[2] = compound: OCCC(F)(F)C(F)(F)C(F)(F)C(F)(F)F [4:2 Fluorotelomer alcohol] (in DMSO)
Method: as §1

[3] = compound: O=C(O)C(F)(F)C(F)(F)C(F)(F)OC(F)(F)F [Perfluoro(4-methoxybutanoic) acid] (in DMSO)
Method: as §1

[4] = compound: O=C(O)C=C(C(F)(F)F)C(F)(F)F [3,3-Bis(trifluoromethyl)-2-propenoic acid] (in DMSO)
Method: as §1

[5] = compound: O=C(O)C(F)(F)OC(F)(F)C(F)(F)OC(F)(F)C(F)(F)OC(F)(F)C(F)(F)C(F)(F)C(F)(F)F [Perfluoro-3,6,9-trioxatridecanoic acid] (in DMSO); settings: 6700 nM
Method: as §1

[6] = compound: C=C(C)C(=O)OCCC(F)(F)C(F)(F)C(F)(F)C(F)(F)C(F)(F)C(F)(F)C(F)(F)C(F)(F)F [8:2 Fluorotelomer methacrylate] (in DMSO)
Method: as §1

[7] = compound: OCC(F)(F)C(F)(F)C(F)(F)C(F)F [1H,1H,5H-Perfluoropentanol] (in DMSO)
Method: as §1

[8] = compound: O=C(O)C(F)(F)C(F)(F)C(F)(F)C(F)(F)C(F)(F)C(F)(F)C(F)(F)C(F)(F)C(F)(F)C(F)(F)F [Perfluoroundecanoic acid] (in DMSO); settings: 6700 nM
Method: as §1

Test System | level (log10) ([1]; 6700 nM) | level (log10) ([1]; 20000 nM) | level (log10) ([1]; 60000 nM) | level (log10) ([2]; 6700 nM) | level (log10) ([2]; 20000 nM) | level (log10) ([2]; 60000 nM) | level (log10) ([3]; 6700 nM) | level (log10) ([3]; 20000 nM) | level (log10) ([3]; 60000 nM) | level (log10) ([4]; 6700 nM) | level (log10) ([4]; 20000 nM) | level (log10) ([4]; 60000 nM) | level (log10) [5] | level (log10) ([6]; 6700 nM) | level (log10) ([6]; 20000 nM) | level (log10) ([7]; 6700 nM) | level (log10) ([7]; 20000 nM) | level (log10) ([7]; 60000 nM) | level (log10) [8]
LPS:sPGE2 | 0 ± 0.028 | -0.0545 ± 0.03 | -0.001 ± 0.011 | -0.008 ± 0.025 | -0.0115 ± 0.044 | -0.0105 ± 0.025 | -0.0115 ± 0.026 | 0.01 ± 0.047 | -0.012 ± 0.017 | -0.0855 ± 0.016 | -0.09 ± 0.021 | -0.106 ± 0.016 | -0.0245 ± 0.013 | -0.038 ± 0.013 | -0.058 ± 0.048 | -0.071 ± 0.011 | -0.027 ± 0.018 | -0.0175 ± 0.036 | -0.0665 ± 0.044
LPS:sTNF-alpha | 0.011 ± 0.0057 | -0.0005 ± 0.0035 | -0.0005 ± 0.0092 | -0.008 ± 0.02 | -0.01 ± 0.0071 | 0.0015 ± 0.0092 | -0.017 ± 0.0071 | -0.0055 ± 0.005 | -0.0115 ± 0.00071 | -0.0305 ± 0.042 | 0.0195 ± 0.023 | -0.0025 ± 0.035 | -0.019 ± 0.024 | 0.0165 ± 0.0064 | -0.007 ± 0.017 | 0.006 ± 0.041 | 0.0065 ± 0.044 | 0.01 ± 0.028 | -0.0415 ± 0.00071
SAg:CCL2/MCP-1 | 0.0065 ± 0.0078 | 0.0055 ± 0.011 | 0.0145 ± 0.019 | -0.009 ± 0.0014 | 0.006 ± 0.025 | 0.031 ± 0.089 | -0.0325 ± 0.022 | -0.0225 ± 0.012 | 0.017 ± 0.024 | -0.0145 ± 0.00071 | -0.0535 ± 0.0078 | -0.079 ± 0.042 | -0.0125 ± 0.018 | 0.0005 ± 0.025 | 0.003 ± 0.011 | 0.016 ± 0.0085 | 0.0115 ± 0.035 | -0.014 ± 0.035 | -0.0155 ± 0.0035
SAg:CD38 | -0.0005 ± 0.03 | -0.004 ± 0.023 | -0.0125 ± 0.016 | 0.0085 ± 0.11 | 0.0295 ± 0.1 | 0.0235 ± 0.077 | -0.0375 ± 0.016 | -0.0225 ± 0.005 | -0.0195 ± 0.0035 | 0.0025 ± 0.013 | -0.019 ± 0.017 | -0.073 ± 0.0028 | 0.0175 ± 0.026 | -0.0195 ± 0.00071 | -0.011 ± 0.013 | 0.0465 ± 0.018 | 0.0415 ± 0.022 | 0.0305 ± 0.049 | -0.0175 ± 0.022
SAg:CD40 | 0.0065 ± 0.0035 | 0.024 ± 0.0085 | 0.017 ± 0.0085 | -0.028 ± 0.059 | -0.036 ± 0.037 | -0.006 ± 0.068 | -0.029 ± 0.023 | -0.034 ± 0.045 | -0.034 ± 0.052 | 0.0205 ± 0.005 | -0.01 ± 0.017 | -0.094 ± 0.038 | -0.0155 ± 0.043 | -0.0265 ± 0.035 | -0.0335 ± 0.0078 | -0.055 ± 0.033 | -0.018 ± 0.031 | -0.0165 ± 0.073 | -0.013 ± 0.0028
SAg:CD62E/E-Selectin | 0.0015 ± 0.0021 | 0.001 ± 0.0071 | 0.033 ± 0.018 | -0.0125 ± 0.011 | -0.001 ± 0.011 | 0.025 ± 0.016 | -0.01 ± 0.0028 | -0.0145 ± 0.037 | -0.0125 ± 0.037 | -0.096 ± 0.0071 | -0.192 ± 0.032 | -0.459 ± 0.11 | -0.019 ± 0.057 | -0.005 ± 0.013 | 0.0205 ± 0.023 | -0.011 ± 0.018 | 0.008 ± 0.0071 | 0.0325 ± 0.035 | 0.034 ± 0.038
SAg:CD69 | 0.0055 ± 0.032 | 0.0065 ± 0.016 | 0.015 ± 0.021 | -0.0265 ± 0.00071 | -0.0115 ± 0.011 | -0.0005 ± 0.0092 | 0.027 ± 0.076 | 0.0345 ± 0.066 | 0.045 ± 0.086 | -0.0145 ± 0.013 | -0.0615 ± 0.0092 | -0.171 ± 0.0014 | -0.0065 ± 0.0021 | -0.013 ± 0.016 | -0.022 ± 0.013 | -0.015 ± 0.018 | 0.0185 ± 0.0092 | 0.0045 ± 0.023 | -0.0285 ± 0.018
SAg:CXCL8/IL-8 | 0.0225 ± 0.057 | 0.0465 ± 0.016 | 0.0945 ± 0.0035 | -0.017 ± 0.0071 | -0.018 ± 0.016 | 0.018 ± 0.034 | 0.007 ± 0.0085 | 0.005 ± 0.017 | 0.01 ± 0.034 | -0.0225 ± 0.025 | -0.101 ± 0.023 | -0.227 ± 0.084 | -0.023 ± 0.011 | -0.0215 ± 0.047 | 0.007 ± 0.021 | 0.006 ± 0.033 | -0.0065 ± 0.00071 | 0.0275 ± 0.052 | -0.021 ± 0.0028
SAg:CXCL9/MIG | 0.007 | -0.0025 ± 0.0078 | 0.0035 ± 0.005 | -0.0125 ± 0.0092 | 0.003 ± 0.0057 | 0.0105 ± 0.035 | -0.0025 ± 0.00071 | -0.0005 ± 0.0092 | 0.011 ± 0.0028 | -0.0065 ± 0.012 | -0.017 ± 0.0099 | 0.006 ± 0.0071 | -0.001 ± 0.0014 | 0.001 ± 0.0099 | 0.002 ± 0.0014 | -0.0105 ± 0.00071 | 0.0005 ± 0.013 | 0.008 ± 0.023 | 0.0005 ± 0.0064
SAg:PBMC Cytotoxicity | -0.025 ± 0.038 | 0.0045 ± 0.0092 | 0.0085 ± 0.0021 | -0.021 ± 0.023 | -0.0085 ± 0.0021 | -0.0095 ± 0.005 | 0.046 ± 0.038 | -0.007 ± 0.024 | 0.019 ± 0.0028 | -0.01 ± 0.0028 | -0.021 ± 0.016 | 0.002 ± 0.03 | -0.003 ± 0.037 | -0.0215 ± 0.012 | 0.018 ± 0.011 | -0.005 ± 0.0042 | 0.0025 ± 0.013 | 0.035 ± 0.058 | 0.006 ± 0.0028
SAg:Proliferation | -0.0725 ± 0.012 | -0.048 ± 0.025 | -0.038 ± 0.024 | -0.041 ± 0.042 | -0.033 ± 0.0071 | -0.0025 ± 0.032 | -0.0095 ± 0.0021 | 0 ± 0.018 | -0.009 ± 0.0014 | 0.004 ± 0.0085 | -0.0715 ± 0.022 | -0.462 ± 0.032 | -0.0295 ± 0.042 | -0.0045 ± 0.053 | 0.052 ± 0.0028 | -0.0155 ± 0.011 | -0.0635 ± 0.016 | 0.025 ± 0.055 | 0.0125 ± 0.059
SAg:SRB | -0.0125 ± 0.013 | -0.0125 ± 0.0021 | -0.0185 ± 0.0092 | -0.009 ± 0.0042 | -0.013 ± 0.016 | 0.001 ± 0.0028 | -0.0145 ± 0.0078 | -0.023 ± 0.0099 | -0.017 ± 0.021 | 0.0025 ± 0.0021 | -0.006 ± 0.0085 | -0.0275 ± 0.005 | 0.0015 ± 0.013 | -0.009 ± 0.0014 | -0.011 ± 0.018 | -0.0075 ± 0.0021 | -0.009 ± 0.0014 | 0.001 ± 0.0085 | 0.0015 ± 0.0092
